# Several values for one entry are separate records, joined by “and”; a condition that tells them apart may be missing. Equal values may be shown once.
# Experiments:
# [1] = test system: T lymphocyte; assay: T lymphocyte cell proliferation assay (CFSE, CD4+/CD8+ flow cytometry); assay type: cell-based, human
# Experimental: T lymphocyte cell proliferation assay was performed according to a reported method[58] with some modification. Briefly, 5 × 10^6 cells /mL cells were stained 2.5 μM CFSE (Tonbo Biosciences) and incubated at 37 °C for 12 min. Then washed and discarded the supernatant and adjusted the CFSE stained cell to 1.75 × 10^6 cells /mL. Cells were diluted in 1640 completed medium containing 5 μg/mL anti-CD3 antibody (Tonbo Biosciences) to 3 × 10^5 cells/mL and seed in a 96-well plate or 24-well plate that pre-packaged 0.4 μg/well anti-CD28 antibody and 1.6 μg anti-CD28 antibody (24-well) (Tonbo Biosciences). Cells were then cultured for 3 days, 9 days or 12 days. Subsequently, the proportion of CD4^+ and CD8^+ cells was determined by flow cytometry (Beckman Coulter, FC500) according to manufacturer’s instruction of PE-Cyanine7 anti-Human CD8a and PE anti-Human CD4 antibodies (Tonbo Biosciences). Data analyzing was performed by using CXP software (Beckman Coulter, Supplementary Fig. 8).
# [2] = test system: OVX mice; assay: Mice peripheral blood T lymphocyte subsets analysis; assay type: in vivo, mouse; details: OVX mice + S3-15 4 weeks, individual animals
# Source text: In order to study the effect of S3-15 on the immune system, after 4 weeks of S3-15 treatment, orbital venous blood with EDTA-anticoagulated was collected for T lymphocyte subsets analysis in osteoporosis mice. We used flow cytometric to determinate T lymphocyte subsets according to the guidelines for Flow Cytometric of Beckman Coulter, FC500. Cells were stained according to manufacturer’s instruction of PE-Cyanine7 anti-Human CD8a and PE anti-Human CD4 antibodies (Tonbo Biosciences). Data analyzing was performed by using CXP software (Beckman Coulter, Supplementary Fig. 9).
# [3] = Cancer donor 1, 3 day, S3-15 0.2
# [4] = Cancer donor 1, 3 day, S3-15 10
# [5] = Healthy donor 1, 3 day, S3-15 0.2
# [6] = Healthy donor 1, 3 day, S3-15 1
# [7] = Healthy donor 1, 3 day, S3-15 5
# [8] = Healthy donor 1, 3 day, S3-15 10
# [9] = Healthy donor 1, 12 day, S3-15 0.2
# [10] = Healthy donor 1, 12 day, S3-15 1
# [11] = Healthy donor 1, 12 day, S3-15 5
# [12] = Healthy donor 1, 12 day, S3-15 10
# [13] = Healthy donor 2, 9 day, S3-15 0.2
# [14] = Healthy donor 2, 9 day, S3-15 1
# [15] = Healthy donor 2, 9 day, S3-15 5
# [16] = Healthy donor 2, 9 day, S3-15 10
# [17] = cancer patient donors 1, 3 day, S3-15 conc. 0.2
# [18] = cancer patient donors 1, 3 day, S3-15 conc. 1
# [19] = cancer patient donors 1, 3 day, S3-15 conc. 5
# [20] = cancer patient donors 1, 3 day, S3-15 conc. 10
# [21] = healthy donors 2, 9 day, S3-15 conc. 0.2
# [22] = healthy donors 2, 9 day, S3-15 conc. 1
# [23] = healthy donors 2, 9 day, S3-15 conc. 5
# [24] = healthy donors 2, 9 day, S3-15 conc. 10
structure (smiles),measurement,setting,value
CC(=O)/C(=N\Nc1ccccc1C(=O)O)C(=O)Nc1ccccn1 [S3-15],CD8+ cells in total cells (%),[1]; [3],14.3% and 18.21% and 16% and 17.82%
same,CD8+cells in CFSE-cells (%),[1]; [3],44.38% and 49.16% and 53.36% and 45.53%
same,CFSE- cells in total cells (%),[1]; [3],7.99% and 11.49% and 11.51% and 10.07%
same,CD8+ cells in total cells (%),"[1]; Cancer donor 1, 3 day, S3-15 1",15.56% and 19.33% and 22.39% and 19.99%
same,CD8+cells in CFSE-cells (%),"[1]; Cancer donor 1, 3 day, S3-15 1",49.17% and 50.09% and 56.77% and 50.35%
same,CFSE- cells in total cells (%),"[1]; Cancer donor 1, 3 day, S3-15 1",9.93% and 12.76% and 16.17% and 13.25%
same,CD8+ cells in total cells (%),"[1]; Cancer donor 1, 3 day, S3-15 5",18.34% and 20.27% and 20.25% and 13.63%
same,CD8+cells in CFSE-cells (%),"[1]; Cancer donor 1, 3 day, S3-15 5",56.42% and 54.7% and 55.11% and 51.68%
same,CFSE- cells in total cells (%),"[1]; Cancer donor 1, 3 day, S3-15 5",12.69% and 14.11% and 13.95% and 8.72%
same,CD8+ cells in total cells (%),[1]; [4],19.25% and 18.44% and 17.07% and 14.93%
same,CD8+cells in CFSE-cells (%),[1]; [4],49.18% and 47.91% and 49.38% and 44.39%
same,CFSE- cells in total cells (%),[1]; [4],12.56% and 11.54% and 10.9% and 9.12%
same,CD4+cells in total cells (%),[1]; [5],68.58% and 70.02% and 62.64% and 62.46%
same,CD8+ cells in total cells (%),[1]; [5],18.64% and 19.25% and 16.01% and 13.6%
same,CD8+cells in CFSE-cells (%),[1]; [5],20.07% and 33.28% and 21.3% and 26.99%
same,CFSE- cells in total cells (%),[1]; [5],25.93% and 25.33% and 20.8% and 18.33%
same,CD4+cells in total cells (%),[1]; [6],63.51% and 67.38% and 70.68% and 68.88%
same,CD8+ cells in total cells (%),[1]; [6],12.65% and 15.35% and 17.94% and 14.88%
same,CFSE- cells in total cells (%),[1]; [6],21.49% and 20.46% and 25.21% and 18.85%
same,CD4+cells in total cells (%),[1]; [7],68.14% and 68.06% and 70.19% and 66.42%
same,CD8+ cells in total cells (%),[1]; [7],12.78% and 16.22% and 14.24% and 15.07%
same,CD8+cells in CFSE-cells (%),[1]; [7],16% and 25.32% and 17.12% and 15.1%
same,CFSE- cells in total cells (%),[1]; [7],22.52% and 22.58% and 17.52% and 21.09%
same,CD4+cells in total cells (%),[1]; [8],72.21% and 54.01% and 61.69% and 61.53%
same,CD8+ cells in total cells (%),[1]; [8],17.68% and 18.86% and 15.27% and 10.99%
same,CD8+cells in CFSE-cells (%),[1]; [8],13.48% and 20.77% and 16.03%
same,CFSE- cells in total cells (%),[1]; [8],22.22% and 20.93% and 15.94%
same,CD4+cells in total cells (%),[1]; [9],25.25% and 26.11% and 25.81% and 23.7%
same,CD8+ cells in total cells (%),[1]; [9],16% and 15.3% and 20.01% and 21.66%
same,CD8+cells in CFSE-cells (%),[1]; [9],74.91% and 72.37% and 73.55% and 71.27%
same,CFSE- cells in total cells (%),[1]; [9],16.3% and 15.37% and 18.72% and 19.27%
same,CD4+cells in total cells (%),[1]; [10],25.53% and 24.4% and 24.71% and 25.6%
same,CD8+ cells in total cells (%),[1]; [10],15.74% and 17.31% and 17.44% and 15.99%
same,CD8+cells in CFSE-cells (%),[1]; [10],74.2% and 73.02% and 72.56% and 72.37%
same,CFSE- cells in total cells (%),[1]; [10],15.48% and 17.29% and 17.32% and 15.2%
same,CD4+cells in total cells (%),[1]; [11],25.95% and 25.52% and 26.76% and 24.64%
same,CD8+ cells in total cells (%),[1]; [11],18.18% and 19.04% and 19.74% and 15.99%
same,CD8+cells in CFSE-cells (%),[1]; [11],75% and 70.17% and 74.02% and 72.37%
same,CFSE- cells in total cells (%),[1]; [11],16.98% and 16.53% and 18.76% and 15.2%
same,CD4+cells in total cells (%),[1]; [12],24.55% and 25.9% and 26.53% and 28.64%
same,CD8+ cells in total cells (%),[1]; [12],25.46% and 18.53% and 18.26% and 16.63%
same,CD8+cells in CFSE-cells (%),[1]; [12],73.6% and 72.27% and 73.36% and 76.51%
same,CFSE- cells in total cells (%),[1]; [12],23.52% and 17.38% and 18.28% and 16.8%
same,CD8+ cells in total cells (%),[1]; [13],60.09% and 60.2% and 40.04%
same,CD8+cells in CFSE-cells (%),[1]; [13],54.45% and 45.56% and 52.87%
same,CFSE- cells in total cells (%),[1]; [13],42.85% and 34.53% and 42.91%
same,CD8+ cells in total cells (%),[1]; [14],57.52% and 60.07% and 56.11%
same,CD8+cells in CFSE-cells (%),[1]; [14],48.8% and 34.73% and 39.45%
same,CFSE- cells in total cells (%),[1]; [14],48.46% and 65.6% and 38.41%
same,CD8+ cells in total cells (%),[1]; [15],39.84% and 41.04% and 43.72%
same,CD8+cells in CFSE-cells (%),[1]; [15],45.39% and 36.07% and 59.1%
same,CFSE- cells in total cells (%),[1]; [15],43.47% and 38.16% and 54.05%
same,CD8+ cells in total cells (%),[1]; [16],61.43% and 57.64% and 58.69%
same,CD8+cells in CFSE-cells (%),[1]; [16],58.1% and 47.19% and 40.24%
same,CFSE- cells in total cells (%),[1]; [16],51.79% and 37.98% and 32.24%
same,CD4+cells in total cells (%),[1]; [17],12.08% and 10.6% and 16.64% and 9.84%
same,CFSE-CD4+cells in CFSE-cells (%),[1]; [17],2.66% and 4.81% and 10.71% and 8.92%
same,CD4+cells in total cells (%),[1]; [18],18.36% and 15% and 12.2% and 13.48%
same,CFSE-CD4+cells in CFSE-cells (%),[1]; [18],2.71% and 4.16% and 9.18% and 4.63%
same,CD4+cells in total cells (%),[1]; [19],12.53% and 13.43% and 14.21% and 19.52%
same,CFSE-CD4+cells in CFSE-cells (%),[1]; [19],4.9% and 5.71% and 2.54% and 4.68%
same,CD4+cells in total cells (%),[1]; [20],8.57% and 13.89% and 11.58% and 13%
same,CFSE-CD4+cells in CFSE-cells (%),[1]; [20],6.23% and 7.1% and 4.66% and 4.48%
same,CD4+cells in total cells (%),"[1]; healthy donors 1, 3 day, S3-15 conc. 0.2",58.71% and 65.57% and 73.86% and 89.25%
same,CD4+cells in total cells (%),"[1]; healthy donors 1, 3 day, S3-15 conc. 1",88.98% and 73.53% and 85.9% and 87.87%
same,CD4+cells in total cells (%),"[1]; healthy donors 1, 3 day, S3-15 conc. 5",88.97% and 73.33% and 75.77% and 81.04%
same,CD4+cells in total cells (%),"[1]; healthy donors 1, 3 day, S3-15 conc. 10",84.3% and 76.41% and 71.29%
same,CFSE-CD4+cells in CFSE-cells (%),"[1]; healthy donors 1, 12 day, S3-15 conc. 0.2",11.71% and 10.81% and 13.35% and 13.65%
same,CFSE-CD4+cells in CFSE-cells (%),"[1]; healthy donors 1, 12 day, S3-15 conc. 1",10.81% and 12.31% and 11.84% and 10.58%
same,CFSE-CD4+cells in CFSE-cells (%),"[1]; healthy donors 1, 12 day, S3-15 conc. 5",11% and 11.24% and 11.79% and 10.58%
same,CFSE-CD4+cells in CFSE-cells (%),"[1]; healthy donors 1, 12 day, S3-15 conc. 10",15.92% and 12.12% and 12.19% and 12.32%
same,CD4+cells in total cells (%),[1]; [21],20.78% and 19.93% and 21.03%
same,CFSE-CD4+cells in CFSE-cells (%),[1]; [21],37.84% and 45.82% and 32.47%
same,CD4+cells in total cells (%),[1]; [22],25.04% and 25.92% and 25.62%
same,CFSE-CD4+cells in CFSE-cells (%),[1]; [22],42.79% and 60.67% and 51.42%
same,CD4+cells in total cells (%),[1]; [23],24.48% and 26.48% and 22.29%
same,CFSE-CD4+cells in CFSE-cells (%),[1]; [23],46.81% and 55.67% and 30.69%
same,CD4+cells in total cells (%),[1]; [24],21.17% and 21.09% and 21.21%
same,CFSE-CD4+cells in CFSE-cells (%),[1]; [24],34.98% and 45.24% and 51.76%
same,lymphocyte proliferation,"[1]; human lymphocytes, in words",did not change lymphocyte proliferation
same,"CD3+, % in peripheral lymphocyte",[2],36.27% and 37.35% and 37.5% and 36.96% and 36.85% and 38.5% and 35.97% and 34.6%
same,"CD3+CD4+, % in CD3+ T cell",[2],61.95% and 60.18% and 56.07% and 64.9% and 64.44% and 61.9% and 58.71% and 64.19%
same,"CD3+CD4+, % in peripheral lymphocyte",[2],22.2% and 22.32% and 20.69% and 23.69% and 23.71% and 23.61% and 23.29% and 21.4%
same,"CD3+CD8+, % in CD3+ T cell",[2],30.94% and 33.61% and 35.99% and 30.67% and 29.41% and 32.61% and 35.04% and 29.24%
same,"CD3+CD8+, % in peripheral lymphocyte",[2],11.41% and 12.7% and 13.52% and 11.4% and 10.94% and 12.69% and 10.21% and 10.64%
same,"CD4+, % in peripheral lymphocyte",[2],22.3% and 22.29% and 20.64% and 23.66% and 23.37% and 23.65% and 23.23% and 21.42%
same,"CD8+, % in peripheral lymphocyte",[2],11.28% and 12.51% and 13.34% and 11.29% and 10.72% and 12.52% and 9.72% and 10.53%
same,CD4+/CD8+ in CD3+ T cell,[2]; ratio,2.002 and 1.791 and 1.558 and 2.116 and 2.191 and 1.898 and 1.676 and 2.195
same,CD4+/CD8+ in peripheral lymphocyte,[2]; ratio,1.946 and 1.757 and 1.53 and 2.078 (2×) and 2.167 and 1.861 and 2.011

# Reference: publication PMC9468151, “Identification of a binding site on soluble RANKL that can be targeted to inhibit soluble RANK-RANKL interactions and treat osteoporosis” (Nature Communications, 2022)
